Measurements reported in US20070093539A1, “N-hydroxy-4-(3-pheyl-5-methyl-isoxazole-4-yl)-benzenesulfonate solvates” (priority 2003, published 2007).

Tests used:
[1] = tested on: carrageenan induced inflammatory hyperalgesia; experiment: Carrageenan induced inflammatory hyperalgesia (Randall-Selitto), chronic model; type: in vivo, male SPRD rats; conditions: 30 mg/kg p.o.
Method: Edema was induced by injection of Carrageenan (CA) into plantar surface of right hind paw. Male SPRD rats (weighing 140-190 g) were used n=6-8/group). Then the mechanical pain threshold of the inflamed hind paw was determined with an analgesimeter ((Ugo Basile, type: 37215).
This assay monitors the decrease of the pain threshold, and the time depending changing of the pain by mechanical pain stimulus. Analgesics can increase the pain threshold of the inflamed hinds and this effect is in terms of percentage of reversal.
Untreated right hind paw was compressed with a progressively increasing pressure. The pressure was recorded (in grams) when the animal first vocalized or made a vigorous attempt to remove the paw. It was determined to baseline threshold of the untreated paw. (average: 80-110 g). After it the animals were treated with carrageenan. After the treatment the edema and the threshold were checked in a given times. […] (Average of inflammation induced pain threshold was 20-25 g, this means 65-80% decrease related to the baseline.)
The chronic phase of the inflammantion and the decreasing of the threshold were induced by higher dose of CA. Inflammation induced threshold decreasing was measured 24 hours after the CA injection (150 μl of 2% solution). ) After it the animals were treated with test compounds and valdecoxib (30-30 mg/kg p.o.). Change in the threshold was checked at 1 h, 2 h, and 3 h following drug administration. In both model used control groups were treated orally only with solvents at the time of treatments. In both protocol the effects of the test compounds were calculated in percentage reversal of mechanical hiperalgesia: [formula] • T3h: In acute model, the threshold in the control group at 3 h after the CA injection (in gram) • T24h: In chronic model, the threshold in the control group at 24 h after the CA injection (in gram) • T0h: The threshold before the CA injection (in gram) • TXh In acute model, at 3h after the CA injection • TXh=In chronic model, at 25 h, 26 h, 27 h after the CA injection

sheep COX-1 = biological target: T1, sheep COX-1 (Ovis aries, UniProt P05979); experiment: spectrophotometric TMPD assay, COX-1; type: biochemical; conditions: 15 min preincubation at 25° C., read-out: Sheep COX-1 IC50 (μM) ± S.E.M.
T1 construct: purchased Cayman Chemical, Ann Arbor, USA 60100
T1 sequence (P05979 25-600): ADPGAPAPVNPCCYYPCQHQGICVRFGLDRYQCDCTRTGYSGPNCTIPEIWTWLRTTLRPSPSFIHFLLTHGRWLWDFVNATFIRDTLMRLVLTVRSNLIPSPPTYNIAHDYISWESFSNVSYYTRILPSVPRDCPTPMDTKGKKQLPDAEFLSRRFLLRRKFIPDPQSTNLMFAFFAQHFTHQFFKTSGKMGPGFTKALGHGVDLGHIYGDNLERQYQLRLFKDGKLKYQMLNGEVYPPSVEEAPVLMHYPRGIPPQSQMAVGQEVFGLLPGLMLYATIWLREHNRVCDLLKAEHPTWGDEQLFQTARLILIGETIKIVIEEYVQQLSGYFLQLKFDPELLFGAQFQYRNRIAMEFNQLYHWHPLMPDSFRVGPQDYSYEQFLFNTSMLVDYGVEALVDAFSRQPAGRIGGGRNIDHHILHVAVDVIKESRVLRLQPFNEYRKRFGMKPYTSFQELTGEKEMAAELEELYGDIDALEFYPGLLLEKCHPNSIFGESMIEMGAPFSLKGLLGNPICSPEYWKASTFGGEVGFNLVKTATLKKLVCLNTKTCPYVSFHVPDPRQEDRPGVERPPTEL
Method: The Human recombinant COX-2 and sheep COX-1 activity were determined by spectrophotometric TMPD assay (K. Gierse, S. D. Hauser, D. P. Creely, C. M. Koboldt, S. H. Rangwala, P. C. Isakson and K. Seibert: Expression and selective inhibition of the constitutive and inducible forms of human cyclo-oxygenase Biochem. J. 305: 479-484 (1995)).
The Human recombinant COX-2 and sheep COX-1 activity were measured by spectrophotometric assay based on oxidation of N,N,N′,N′,-tetramethyl-p-phenylenediamine (TMPD). During the reduction of the prostaglandine G2 (PGG2) to prostaglandine endoperoxid H2 (PGH2), the TMPD is being oxidated to a colour product, which can be measured by spectrophotometer at 610 nm.
4 μl of solution of inhibitors in different concentrations was added to the 156 μl of reaction mixture (100 mM sodium phosphate buffer, pH:6.5, 1 μM hematin, 1 mg/ml gelatine). Afterwards 20 μl solution of 50 unit human recombinant COX-2 enzym or 20 μl of 50 unit sheep COX-1 enzym (Cayman Chemical, Ann Arbor, USA, cat no.: 60122/COX-2/, cat. no.: 60100/COX-1/) was added. The incubation mixture: was preincubated for 15 minutes at 25° C. in a spectrophotometric 96-well plate reader (Labsystem iEMS Reader MF). Following this, the mixture of 20 μl 1 mM arachidonic acid and 1 mM TMPD solution were added. It was shaken for 10 second and the absorbance was measured at 610 nm.

“N-hydroxi-4-(3-phenyl-5-methyl-isoxazole-4-yl)-benzenesulfonamide monohydrate [example 1]” was tested, and the “Analgesic effect in % after p.o. treatment” value ([1]; 1 hour) was 57.8%, the “Analgesic effect in % after p.o. treatment” value ([1]; 2 hours) was 63.9% and the “Analgesic effect in % after p.o. treatment” value ([1]; 3 hours) was 42.0%. For the same substance, the IC50 (sheep COX-1) was 101 ± 12.5 µM.
